Source: patent publication US20250114420A1, “ANTIMICROBIAL NATURAL COMPOSITIONS” (BIO-ACTIVES SYNERGIO LTD, priority 2022, published 2025)

What was measured:
[1] = test system: A. brasilliensis (AB); experiment: Agar dilution test; type: cell-based, Aspergillus brasiliensis; set-up: key: (+) indicates growth; (+/−) indicates partial growth; (−) indicates no growth; details: Table 4, 24-48 hours
Method: (§1) An agar dilution test was carried out for various combinations of saponin extract (Sapindus mukorossi) and Styrax extract (Sumatra benzoin), with maltol extracted from wheat as an additional plant extract, for evaluating the synergistic antimicrobial effect therebetween.
(§2) The agar dilution test was carried out as follows: TSA (tryptic soy agar) or SDA (Sabouraud dextrose agar) media were melted at 99±2° C. and kept warm until seeding (43±2° C.). Into a quota of the growth medium, the maltol and extract were added and stirred. 5 ml of the mixture was poured into each test plate and left to cool and solidify. The plates were then inoculated by defined amounts of test microorganisms (E. coli, S. aureus and P. aeruginosa used on TSA plates, C. albicans and A. brasilliensis used on the SDA plates). The plates were incubated at 25-35° C. for 24-48 hours and then assessed for microorganisms' growth.
(§3) The test results for the combinations of saponin and Styrax extracts with maltol are detailed in Table 4, while the results for the compositions of saponin and Styrax extracts with maltol and citric acid are shown in Table 5. (+) indicates growth, (+/−) indicates partial growth, while (−) indicates no growth. Positive control was obtained by utilizing a commercial preservative. […]

[2] = test system: C. albicans (CA); experiment: Agar dilution test; type: cell-based, Candida albicans; set-up: key: (+) indicates growth; (+/−) indicates partial growth; (−) indicates no growth; details: Table 4, 24-48 hours
Method: as §1, §2, §3

[3] = test system: P. aeruginosa (PA); experiment: Agar dilution test; type: cell-based, Pseudomonas aeruginosa; set-up: key: (+) indicates growth; (+/−) indicates partial growth; (−) indicates no growth; details: Table 4, 24-48 hours
Method: as §1, §2, §3

[4] = test system: E. coli (EC); experiment: Agar dilution test; type: cell-based, Escherichia coli; set-up: key: (+) indicates growth; (+/−) indicates partial growth; (−) indicates no growth; details: Table 4, 24-48 hours
Method: as §1, §2, §3

[5] = test system: S. aureus (SA); experiment: Agar dilution test; type: cell-based, Staphylococcus aureus; set-up: key: (+) indicates growth; (+/−) indicates partial growth; (−) indicates no growth; details: Table 4, 24-48 hours
Method: as §1, §2, §3

[6] = test system: mixture of S. aureus, S. capitis, S. epidermis and S. hominis; experiment: Agar plates of cream samples inoculated with skin microbiota mixture (FIGS. 1A-1D); type: cell-based; details: cream sample; after 7 hours of incubation
Method: FIGS. […] The upper panel of each agar plate was plated with mixture of representative microorganisms to provide a control to each of the experiments.
The mixture of microorganisms represents the natural skin microbiota. […] In comparison, FIGS. 1C and 1D show samples of the cream with the bottom half of the sample containing the compositions 5A and 5B, respectively, and without preservative in the upper half.

SMILES	Agar dilution test result (growth), AB ([1]; Teat 2 (duplicate))	Agar dilution test result (growth), AB ([1]; Test 1)	Agar dilution test result (growth), CA ([2]; Teat 2 (duplicate))	Agar dilution test result (growth), CA ([2]; Test 1)	Agar dilution test result (growth), PA ([3]; Teat 2 (duplicate))	Agar dilution test result (growth), PA ([3]; Test 1)	Agar dilution test result (growth), EC ([4]; Teat 2 (duplicate))	Agar dilution test result (growth), EC ([4]; Test 1)	Agar dilution test result (growth), SA ([5]; Teat 2 (duplicate))	Agar dilution test result (growth), SA ([5]; Test 1)	effect on natural skin microbiota on agar plate (FIGS. 1A-1D) [6]
Cc1occc(=O)c1O [ML 0.1%, maltol]	+/−	+/−	−	−	−	−	+	+	−	−	
Cc1occc(=O)c1O [ML 0.02%, maltol]	+	+	+	+	+	+	+	+	+	+	
Cc1occc(=O)c1O [ML 0.2%, maltol]	−	−	−	−	−	−	−	−	−	−	
Cc1occc(=O)c1O [ML 0.04%, maltol]	+	+	+/−	+/−	+	+	+	+	+/−	+/−	
Cc1occc(=O)c1O [ML 0.05%, maltol]	+	+	+	+	+/−	+/−	+	+	+/−	+/−	
Cc1occc(=O)c1O [ML 0.08%, maltol]	+/−	+/−	−	−	−	−	+/−	+/−	+	+	
CCCCC(CC)COCC(O)CO (stereo not shown) [commercial synthetic preservative, ethylhexyl glycerin]											almost complete elimination of the microbiota
